32 compounds from US5081131A, “Omega-((hetero)alkyl)benz(cd)-indol-2-amines” (American Cyanamid Company, priority 1988, dated 1992) can be followed below.

In assay [1] the target is T1, thromboxane synthetase enzyme (Rattus norvegicus, UniProt P49430).
T1 construct: endogenous in cells; host or cells: washed platelets from arterial blood of male Okamoto-Aoki spontaneously hypertensive rats (animals from Taconic Farms, Germantown, N.Y.)
T1 sequence (P49430 1-533): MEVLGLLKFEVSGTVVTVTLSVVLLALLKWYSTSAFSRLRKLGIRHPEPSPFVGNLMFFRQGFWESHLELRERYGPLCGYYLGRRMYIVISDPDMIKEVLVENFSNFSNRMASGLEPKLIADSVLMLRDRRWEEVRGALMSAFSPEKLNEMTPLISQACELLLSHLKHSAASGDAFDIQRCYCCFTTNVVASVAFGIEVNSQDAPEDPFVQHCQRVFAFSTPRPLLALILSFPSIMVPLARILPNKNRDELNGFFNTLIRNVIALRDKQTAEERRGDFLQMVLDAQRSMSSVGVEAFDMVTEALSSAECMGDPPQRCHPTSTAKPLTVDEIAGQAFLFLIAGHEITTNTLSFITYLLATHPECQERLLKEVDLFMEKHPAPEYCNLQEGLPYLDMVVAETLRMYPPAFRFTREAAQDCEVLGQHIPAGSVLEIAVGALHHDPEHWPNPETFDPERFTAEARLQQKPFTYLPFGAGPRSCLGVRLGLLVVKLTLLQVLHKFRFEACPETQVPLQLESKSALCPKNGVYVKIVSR
Briefly: Thromboxane synthetase enzyme inhibition (TXB2 formation in washed platelets, RIA). To be noted: SHR platelets, 10 min at 37° C. The format is cell-based, spontaneously hypertensive rat. The procedure: The blood was diluted with 3 ml cold saline and centrifuged at room temperature for 15 min at 468×g. The platelet rich plasma (PRP) was separated. The platelets were isolated by certrifuging the PRP for 10 minutes at 1060×g and washed in 4 ml cold oxygenated Krebs phosphate buffer, pH 7.4. The chilled platelets recovered from centrifuging at 800×g for 10 minutes were resuspended in oxygenated Krebs phosphate buffer and diluted to contain 4.0-6.0×10^4 platelets/micro-liters. The inhibition of TX formation was studied by determining the concentration of thromboxane B2 (TXB2), the stable hydrolysis product of TXA2. Assay samples prepared on ice, contained 200 micro-liters platelet suspension, 50 micro-liters saline, and 50 micro-liters […] (saline) or drug under study. The test drug (0.003 mole) was dissolved in 5 ml of saline. […] The assay samples were incubated for 10 minutes at 37° C. in a metabolic shaker at about 60 rpm. The reaction was terminated by immersing the tubes in an ice bath and adding 50 micro-liters of 0.5M citric acid. The samples were centrifuged for 10 minutes at 2000 rpm at 4° C., and the supernatants were decanted.

The test system of assay [2] is spontaneously hypertensive rats. Kind of assay: Hypotensive activity in spontaneously hypertensive rats (MABP). It is filed as in vivo, rat (Okamoto strain). The following applies: SHR, gavage, two doses of 10 mg/kg or less 24 h apart, MABP at 28 h; average baseline 160±1.5 mm Hg. The procedure: The novel compounds of the present invention are active hypotensive agents and were tested for hypotensive activity by the method of P. S. Chan and D. Poorvin, Clinical and Experimental Hypertension, 1 (6), 817-830 (1979). Male, 16 week old, spontaneously hypertensive rats of the Okamoto strain, from Taconic Farms, Germantown, N.Y., having an average mean arterial blood pressure of 160±1.5 mm of mercury, were used in the test. One to 4 rats were used per test compound. A rat was dosed by gavage with a test compound, suspended in 2% pre-boiled starch at a concentration of 50 mg/ml, at a doses of 10 mg/kg of body weight or less, with 0.9% sodium chloride loading at a dose of 25 ml/kg of body weight. A second identical dose of the test compound, without sodium chloride loading was given 24 hours later. At 28 hours after initial dose the mean arterial blood pressure (MABP) was measured. The procedure was repeated in a second and third rat when necessary.

[3] abbreviates: 1×10^-4 Molar, read-out: % Inhibition (Thromboxane Synthetase Enzyme Inhibition).

The structures appear in SMILES notation. Where a name gives a salt, the structure may show the parent alone. Read-outs that look alike come from different tables or passages of the source.

Broadly, the inhibition is the change of the read-out against control, counted positive when it falls. Take `c1cc2c3c(cccc3c1)C(NCCCCCCCCCCCCn1ccnc1)=N2` [N-(12-(1H-imidazol-1-yl)dodecyl)benz(cd)indol-2-amine]: the inhibition at 100 µM in assay [1] (setting [3]) came out at 97%. The “Avg. MABP in mm Hg (No. of Rats)” value in assay [2] is 133 mm Hg.
Consider `c1cc2c3c(cccc3c1)C(NCCCCn1ccnc1)=N2` [N-(4-(1H-imidazol-1-yl)butyl)benz(cd)indol-2-amine monobutanedioic acid salt], for which the inhibition at 100 µM in assay [1] (read-out: % Inhibition (Thromboxane Synthetase Enzyme Inhibition), 1×10^-4 Molar) is 93%.
Take `O=C(O)/C=C/C(=O)O.c1cncc(CCCNC2=Nc3cccc4cccc2c34)c1` [N-(3-(3-Pyridinyl)propyl)benz(cd)indol-2-amine, fumarate]: the inhibition at 100 µM in assay [1] (setting [3]) is 97%. Besides, the “Avg. MABP in mm Hg (No. of Rats)” value in assay [2] is given as 93 mm Hg.
Take `c1cc2c3c(cccc3c1)C(NCCCn1ccnc1)=N2` [N-(3-(1H-imidazol-1-yl)propyl)benz(cd)indol-2-amine, fumarate]: in assay [1] (setting [3]), the inhibition at 100 µM was found to be 92%.
In the case of `CC(=O)N(CCCCn1ccnc1)C1=Nc2cccc3cccc1c23` [N-Benz(cd)indol-2-yl-N-(4-(1H-imidazol-1-yl)butyl)acetamide], the inhibition at 100 µM in assay [1] (setting [3]) worked out at 98.5%. Further, the “Avg. MABP in mm Hg (No. of Rats)” value in assay [2] was 81 mm Hg.
As to `c1cc2c3c(cccc3c1)C(NCCOCCn1ccnc1)=N2` [N-(2-(2-(1H-imidazol-1-yl)ethoxy)ethyl)benz(cd)indol-2-amine bis-fumarate], in assay [1] (setting [3]), the inhibition at 100 µM worked out at 98%.
Still for that read-out and setting: in the case of `c1cc2c3c(cccc3c1)C(NCCn1ccnc1)=N2` [N-(2-(1H-imidazol-1-yl)ethyl)benz(cd)indol-2-amine] it was 71%; in that of `c1cncc(CNC2=Nc3cccc4cccc2c34)c1` [N-(3-Pyridinylmethyl)benz(cd)indol-2-amine, fumarate], 68%.
With `Brc1ccc2c3c(cccc13)C(NCCCCc1cccnc1)=N2.Cl.Cl` [6-Bromo-N-(4-(3-pyridinyl)butyl)benz(cd)indol-2-amine, dihydrochloride], the “% Inhibition (Thromboxane Synthetase Enzyme Inhibition)” value (from here on “% Inhibition”) in assay [1] (1×10^-4 Molar) stood at 89%. In addition, the “Avg. MABP in mm Hg (No. of Rats)” value in assay [2] was 99 mm Hg.
Regarding `CC(=O)N(CCCc1cccnc1)C1=Nc2cccc3cccc1c23` [N-Benz(cd)indol-2-yl-N-(3-(3-pyridinyl)propyl)acetamide], in assay [1] (setting [3]), the inhibition at 100 µM stood at 95%. Also, the “Avg. MABP in mm Hg (No. of Rats)” value in assay [2] was 85 mm Hg.
The matching figures for `Brc1ccc2c3c(cccc13)C(NCCCCc1cccnc1)=N2` [6-Bromo-N-(4-(3-pyridinyl)butyl)benz(cd)indol-2-amine sesqui-fumarate]: 92% and 110 mm Hg.
For the compound `O=C(c1ccc(Cl)cc1)N(CCCCn1ccnc1)C1=Nc2cccc3cccc1c23` [N-Benz(cd)indol-2-yl-4-chloro-N-(4-(1-imidazol-1-yl)butylbenzamide], the inhibition at 100 µM in assay [1] (setting [3]) was 96%.
With `Clc1cc(Cl)c2cccc3c2c1N=C3NCCCCn1ccnc1` [6,8-Dichloro-N-(4-(1H-imidazol-1-yl)butyl)benz(cd)indol-2-amine], the inhibition at 100 µM in assay [1] (setting [3]) amounted to 99%. Also, in assay [2], the “Avg. MABP in mm Hg (No. of Rats)” value was determined as 115 mm Hg.
The like results for `O=C(O)/C=C/C(=O)O.c1csc(CNC2=Nc3cccc4cccc2c34)c1` [N-(2-Thienylmethyl)benz(cd)indol-2-amine, fumarate] were, in that order, 93% and 141 mm Hg.
The matching figures for `O=C(O)/C=C/C(=O)O.c1coc(CNC2=Nc3cccc4cccc2c34)c1` [N-(2-Furanylmethyl)benz(cd)indol-2-amine fumarate]: 93% and 142 mm Hg.
Take `CC(CCNC1=Nc2cccc3cccc1c23)c1ccncc1` (centres unmarked) [N-(3-(4-pyridinyl)butyl)benz(cd)indol-2-amine]: in assay [1] (setting [3]), the inhibition at 100 µM was 95%.
On the same count and under the same terms, in the case of `N#CCCN(Cc1ccccn1)C1=Nc2cccc3cccc1c23` [N-(2-Cyanoethyl)-N-(2-pyridinylmethyl)benz(cd)indol-2-amine, dihydrochloride] it was 97%.
Still for that read-out and setting: in the case of `Clc1ccc(C(Cn2ccnc2)NC2=Nc3cccc4cccc2c34)cc1` (centres unmarked) [N-(1-(4-chlorophenyl)-2-(1H-imidazol-1-yl)ethyl)benz(cd)indol-2-amine, fumarate] it was 35%; in that of `CN(CCc1ccccn1)C1=Nc2cccc3cccc1c23` [N-Methyl-N-(2-(2-pyridinyl)ethyl)benz(cd)indol-2-amine fumarate], 89%; in that of `CCC(=O)N(CCC(C)n1ccnc1)C1=Nc2cccc3cccc1c23` (centres unmarked) [N-Benz(cd)indol-2-yl-N-(3-(1H-imidazol-1-yl)butyl)propionamide], 95%.
Same read-out and setting: under `Brc1ccc2c3c(cccc13)C(NCCCCCCCCCCn1ccnc1)=N2` [6-Bromo-N-(10-(1H-imidazol-1-yl)decyl)benz(cd)indol-2-amine] stands 94%.
Consider `CC(CCCNC1=Nc2cccc3cccc1c23)n1ccnc1.O=C(O)/C=C/C(=O)O.O=C(O)/C=C/C(=O)O` (centres unmarked) [N-(4-(1H-imidazol-1-yl)pentyl)benz(cd)indol-2-amine, bis-fumarate], for which the “% Inhibition” value in assay [1] (1×10^-4 Molar) was 99%.
Same read-out and setting: in the case of `c1cc2c3c(cccc3c1)C(NCCCCn1ccnc1)=N2` [N-(4-(1H-imidazol-1-yl)butyl)benz(cd)indol-2-amine sesquibut] [N-(4-(1H-imidazol-1-yl)butyl)benz(cd)indol-2-amine sesquibutanedioic acid salt] it was 98%.
Regarding `c1ccc(CNC2=Nc3cccc4cccc2c34)nc1` [N-(2-Pyridinylmethyl)benz(cd)indol-2-amine, fumarate], the inhibition at 100 µM in assay [1] (setting [3]) turned out to be 95%.
On the same count and under the same terms, under `O=C(c1ccccc1)N(CCCn1cncn1)C1=Nc2cccc3cccc1c23` [N-Benz(cd)indol-2-yl-N-(3-(1H-1,2,4-triazol-1-yl)propyl)benzamide] stands 77%.
`c1ccc(-n2ncc(CNC3=Nc4cccc5cccc3c45)n2)cc1` [N-((2-Phenyl-2H-1,2,3-triazol-2-yl)methyl)benz(cd)indol-2-amine fumarate]: the inhibition at 100 µM in assay [1] (setting [3]) is 73%.
Still for that read-out and setting: in the case of `Clc1ccc2c3c(cccc13)C(NCCCCCn1ccnc1)=N2` [6-Chloro-N-(5-(1H-imidazol-1-yl)pentyl)benz(cd)indol-2-amine] it was 100%; in that of `OC(CNC1=Nc2cccc3cccc1c23)Cn1ccnc1` (centres unmarked) [N-(3-(1H-imidazol-1-yl)-2-hydroxypropyl)benz(cd)indol-2-amine], 88%.
On the same count and under the same terms, in the case of `Cn1cccc1CCNC1=Nc2cccc3cccc1c23` [N-(2-(1-Methyl-1H-pyrrol-2-yl)ethyl)benz(cd)indol-2-amine, fumarate] it was 90%; in that of `c1ccc(-c2nccn2CCCNC2=Nc3cccc4cccc2c34)cc1` [N-(3-(2-Phenyl-1H-imidazol-1-yl)propyl)benz(cd)indol-2-amine, hydriodide], 100%.
`c1cc2c3c(cccc3c1)C(NCCCCn1ccnc1)=N2` [N-(4-(1H-imidazol-1-yl)butyl)benz(cd)indol-2-amine, hydriodi] [N-(4-(1H-imidazol-1-yl)butyl)benz(cd)indol-2-amine, hydriodide]: the “% Inhibition” value in assay [1] (1×10^-4 Molar) was 100%.
Consider `Cc1nccn1CCCNC1=Nc2cccc3cccc1c23` [N-(3-(2-Methyl-1H-imidazol-1-yl)propyl)benz(cd)indol-2-amine, monohydriodide], for which the inhibition at 100 µM in assay [1] (setting [3]) is 82%.
